Source: the supplement of paper PMC10011410

Assays:
[1] = system: U-2 OS; assay: relative cell count vs DMSO (cell painting) (fraction of DMSO control); higher = more cells remaining (less cytotoxic); details: 24 h
Protocol: (§1)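 Cell painting in U-2 OS cells (384-well, about 1,500 cells per well), compound exposure 24 h, usually six 2-fold concentrations from 20 to 0.625 uM (some compounds higher or lower). Relative cell count is the cell number per well relative to DMSO wells. Activity score is the Mahalanobis distance of the morphological profile from DMSO control wells. Mean of four technical replicate plates.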

[2] = system: U-2 OS; assay: AUC of culture confluence over time (live-cell imaging) (AUC (confluence % x time)); higher = more confluent culture (less growth inhibition)
Protocol: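 Live-cell Incucyte imaging of U-2 OS cells in F-12K medium. Compounds were tested mostly at 5, 10 and 20 uM, and cells were imaged every 4 h for up to 60 h. Value is the area under the curve of phase-contrast confluence over time.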

[3] = system: U-2 OS; assay: cell painting activity score (Mahalanobis distance from DMSO wells); higher = stronger morphological phenotype; details: 24 h
Protocol: as §1

SMILES | relative cell count ([1]; 0.625 µM) | relative cell count ([1]; 1.25 µM) | relative cell count ([1]; 2.5 µM) | relative cell count ([1]; 5 µM) | relative cell count ([1]; 10 µM) | relative cell count ([1]; 20 µM) | AUC of culture confluence over time ([2]; 5 µM) | AUC of culture confluence over time ([2]; 10 µM) | AUC of culture confluence over time ([2]; 20 µM) | cell painting activity score ([3]; 0.625 µM) | cell painting activity score ([3]; 1.25 µM) | cell painting activity score ([3]; 2.5 µM) | cell painting activity score ([3]; 5 µM) | cell painting activity score ([3]; 10 µM) | cell painting activity score ([3]; 20 µM) | relative cell count ([1]; 40 µM) | relative cell count ([1]; 80 µM) | AUC of culture confluence over time ([2]; 40 µM) | AUC of culture confluence over time ([2]; 80 µM) | cell painting activity score ([3]; 40 µM) | cell painting activity score ([3]; 80 µM)
C[C@@H]1O[C@@H](O[C@H]2[C@H](OC(=O)[C@]34CCC(C)(C)C[C@H]3C3=CC[C@@H]5[C@@]6(C)C[C@H](O)[C@H](O[C@@H]7O[C@H](CO)[C@@H](O)[C@H](O)[C@H]7O)[C@@](C)(CO)[C@@H]6CC[C@@]5(C)[C@]3(C)CC4)O[C@H](CO)[C@@H](O)[C@@H]2O)[C@H](O)[C@H](O)[C@H]1O[C@@H]1OC[C@@H](O)[C@H](O)[C@H]1O | 0.996 | 0.972 | 0.947 | 0.97 | 0.984 | 0.999 | 52.4 | 46.4 | 51 | 4.19 | 4.7 | 5.42 | 5.5 | 6.76 | 3.23 | – | – | – | – | – | –
C[C@@H]1Cc2c(Cl)cc(C(=O)N[C@@H](Cc3ccccc3)C(=O)O)c(O)c2C(=O)O1 | 1 | 0.998 | 0.979 | 0.954 | 0.805 | 0.503 | 40.8 | 30.3 | 17.7 | 3.03 | 4 | 4.76 | 5.78 | 10.6 | 16.6 | – | – | – | – | – | –
C[n+]1ccc(-c2cc[n+](CCCCCCCCCC[P+](c3ccccc3)(c3ccccc3)c3ccccc3)cc2)cc1.[I-].[I-].[I-] | 0.908 | 0.96 | 1 | 1.01 | 0.965 | 0.969 | 45.2 | 40 | 37.1 | 3.81 | 4.65 | 5.16 | 5.04 | 3.72 | 4.7 | – | – | – | – | – | –
COC1=C2C[C@@H](C)C[C@H](OC)[C@H](O)[C@@H](C)/C=C(\C)[C@H](OC(N)=O)[C@@H](OC)/C=C\C=C(/C)C(=O)NC(=CC1=O)C2=O | 0.954 | 0.911 | 0.867 | 0.759 | 0.663 | 0.619 | 20.3 | 18.8 | 20.8 | 8.75 | 12.7 | 13 | 14 | 13.3 | 14.5 | – | – | – | – | – | –
CC(C)=C[C@@H]1CO[C@]23C[C@]4(CO2)[C@H](CC[C@@H]2[C@@]5(C)CC[C@H](O[C@@H]6OC[C@H](O)[C@H](O[C@@H]7O[C@H](CO)[C@@H](O)[C@H](O)[C@H]7O)[C@H]6O[C@@H]6O[C@@H](CO)[C@H](O)[C@H]6O)C(C)(C)[C@@H]5CC[C@]24C)[C@H]3[C@@]1(C)O | 0.956 | 0.977 | 1.02 | 0.762 | 0.393 | 0.0257 | 44.4 | 15.8 | 23.9 | 4.86 | 4.19 | 6.77 | 9.86 | 22.5 | 29.1 | – | – | – | – | – | –
C=C(C)[C@H]1Cc2c(ccc3c2O[C@@H]2COc4cc(OC)c(OC)cc4[C@@H]2C3=O)O1 | 0.719 | 0.643 | 0.485 | 0.349 | 0.311 | 0.332 | 15 | 17.9 | 21.1 | 10.4 | 11.4 | 15.6 | 15.6 | 15.4 | 15.4 | – | – | – | – | – | –
CC[C@H]1CN2CCc3cc(OC)c(OC)cc3[C@@H]2C[C@@H]1C[C@H]1NCCc2cc(OC)c(OC)cc21.Cl.Cl.O | 0.51 | 0.489 | 0.482 | 0.462 | 0.462 | 0.433 | 15.2 | 16 | 16.6 | 18.4 | 18.9 | 19.4 | 20.8 | 20.8 | 20.6 | – | – | – | – | – | –
CC[C@@H]1/C=C/C=C/C[C@H](C)[C@@H](O)[C@](C)(O)C(=O)[C@H](C)[C@@H](O)[C@H](C)C(=O)[C@H](C)[C@@H](O)[C@H](C)/C=C/C(=O)O[C@H]2[C@@H](C)[C@@H](CC1)O[C@@]1(CC[C@@H](C)[C@@H](C[C@H](C)O)O1)[C@@H]2C | 0.797 | 0.815 | 0.83 | 0.833 | 0.872 | 0.697 | 28.5 | 29.6 | 17.4 | 14.7 | 14.7 | 14.5 | 13.4 | 13.8 | 15 | – | – | – | – | – | –
CN1C(=O)[C@]23CC4=CC=C[C@H](O)[C@H]4N2C(=O)[C@@]1(CO)SS3 | 0.197 | 0.0207 | 0.0068 | 0.0047 | 0.00462 | 0.00499 | 7.79 | 7.52 | 8.46 | 17.6 | 31.2 | 35.5 | 29.6 | 26.9 | 36.5 | – | – | – | – | – | –
COc1ccc2c(c[n+](C)c3c4cc5c(cc4ccc23)OCO5)c1OC | 0.994 | 1.03 | 1.01 | 0.982 | 0.695 | 0.0282 | 46.8 | 41 | 11.4 | 5.1 | 3.72 | 14.6 | 14.5 | 13.8 | 16.2 | – | – | – | – | – | –
S=P(N1CC1)(N1CC1)N1CC1 | 1.06 | 0.967 | 0.939 | 0.904 | 0.942 | 0.856 | 39.2 | 31 | 32.9 | 3.3 | 3.39 | 3.97 | 4.44 | 5.38 | 7.45 | – | – | – | – | – | –
C[C@]12O[C@H](C[C@]1(O)CO)n1c3ccccc3c3c4c(c5c6ccccc6n2c5c31)CNC4=O | 0.654 | 0.525 | 0.521 | 0.516 | 0.453 | 0.138 | 25.9 | 23.6 | 23.8 | 20.6 | 21.4 | 22.3 | 23.1 | 23.1 | 22.8 | – | – | – | – | – | –
CN(N=O)C(=O)N[C@@H]1[C@@H](O)[C@H](O)[C@@H](CO)O[C@@H]1O | 1.04 | 0.929 | 0.893 | 0.893 | 0.88 | 0.851 | 48.1 | 46.7 | 48.1 | 12.4 | 14.8 | 14.4 | 13.9 | 10.4 | 10.8 | – | – | – | – | – | –
CC1(C)CC[C@]2(C(=O)O[C@@H]3O[C@H](CO)[C@@H](O)[C@H](O)[C@H]3O)CC[C@]3(C)C(=CC[C@@H]4[C@@]5(C)CC[C@H](O[C@@H]6O[C@H](C(=O)O)[C@@H](O)[C@H](O)[C@H]6O[C@@H]6O[C@H](CO)[C@@H](O)[C@H](O)[C@H]6O)C(C)(C)[C@@H]5CC[C@]43C)[C@@H]2C1 | 0.971 | 0.973 | 0.949 | 0.938 | 0.915 | 0.964 | 54.4 | 51.1 | 57.6 | 4.68 | 4.76 | 5.42 | 5.24 | 6.27 | 9.37 | – | – | – | – | – | –
CN1C(=O)[C@@]23C[C@]4([C@]56C[C@@]78SS[C@@](CO)(C(=O)N7[C@H]5Nc5ccccc56)N(C)C8=O)c5ccccc5N[C@@H]4N2C(=O)[C@]1(CO)SS3 | 0.176 | 0.0258 | 0.0235 | 0.0282 | 0.0283 | 0.0118 | 9.52 | 13.4 | 13.8 | 16.3 | 21.7 | 17.3 | 16.4 | 7.82 | 14 | – | – | – | – | – | –
ClC1=CC=C(C2=CSC(N/N=C3CCCC/3)=N2)C=C1 | 1.01 | 1.04 | 0.973 | 1 | 0.97 | 0.882 | – | – | – | 3.41 | 3.02 | 4.44 | 4.27 | 4.6 | 7.83 | 0.758 | 0.766 | 39.7 | 41.8 | 10 | 11
